Measurements: patent US4719046A, “Crysene derivatives” (Burroughs Wellcome Co., priority 1984, dated 1988)
Counter-ions that a name gives are not always drawn.

Columns and labels:
CD2-F1 mice = assay: LD20 in the P388/0 test mice; assay type: in vivo, mouse (CD2-F1); settings: IP days 1, 5, 9, doses on a mg/kg basis
Experimental: (§1) CD2-F1 mice, of the same sex, weighing 20±3 g, are used for this test. Control and test animals are injected intraperitoneally with a suspension of ~10^6 viable P388/0 tumor cells on day 0. In each test, several dose levels which bracket the LD20 of the compound are evaluated; each dose level group contains six animals. The test compounds are prepared either in physiologic saline containing 0.05% Tween 80 or distilled water containing 5% dextrose and are administered intraperitoneally on days 1, 5, and 9 relative to tumor implant. Doses are on a mg/kg basis according to individual animals' body weights. The day of death for each animal is recorded, the median identified for each group and the ratios of median survival time for treated (T)/control (C) groups are calculated. The criterion for activity is T/C×100≥120%.
(§2) ^A Values in parentheses are the highest nontoxic dose where the
(§3) LD20 was not determined.

melanotic melanoma B16 = assay: Melanotic Melanoma B16 test; assay type: in vivo, mouse (B6C3-F1); settings: median survival T/C; IP days 1, 5, 9; active if >125%; dose mg/kg: 1C 100, 6G 50, 3 70, 2 75, 18B 70
From the text: (§4) Methods for evaluating the antitumor activity of these compounds are essentially those used in the Tumor Panel by the Developmental Therapeutics Program, Division of Cancer Treatment, National Cancer Institute, A. Goldin, et al., Methods in Cancer Research, Vol. XVI, p. 165, Academic Press (1979). Some modifications, in dose level and schedule have been made to increase the testing efficiency.
as §1
B6C3-F1 mice of the same sex, weighing 20±3 g, are used for this test. A suspension of B16 cells is prepared from a non-necrotic portion of solid tumor tissue obtained from a passage mouse. One gram of tumor is homogenized in 9 mL ice-cold Earle's salts solution and filtered through 1000 mesh screen to remove debris. 0.5 mL of the resulting brei is injected intraperitoneally into each animal. Dosing is carried out as in the P388/0 and L1210 tests. Days of death are recorded for a 60 day period and T/C ratio calculated as in the P388/0 and L1210 tests. The criterion for activity is T/C×100>125%.

[1] = system: Streptococcus pyogenes (CN10); assay: Antibacterial test, Streptococcus pyogenes (agar dilution); assay type: cell-based
From the text: (§5) Anitbacterial testing against […] (S3264) and Streptococcus pyogenes (CN10) was done with slight modifications using standard agar dilution assays as outlined in Manual of Clinical Microbiology Second Ed., E. H. Lennette. E. H. Spaulding and J. P. Traunt Eds., American Society for Microbiology, Washington, DC, 1974

Mycoplasma smegmatis = assay: Antibacterial test, Mycoplasma smegmatis (agar dilution); assay type: cell-based
From the text: as §5

Herpes simplex 1/vero = Herpes simplex 1/vero plaque inhibition screen; assay type: cell-based
From the text: Antiviral testing against Herpes simplex 1/vero was done using plaque inhibition methods as outlined in P. Collins and D. J. Bauer, Proc. N.Y. Acad. Sci. 284, 49 (1977) and by plaque reduction methods as outlined in P. Collins and D. J. Bauer, J. Antimicrobial Chemotherapy 3, Supplement A, 73(1977). The column headings labeled Score, Toxicity, and Zone of Inhibition refer to the plaque inhibition screen while the IC50 heading to the plaque reduction screen.

[2] = system: lymphocytic leukemia L1210; assay: Lymphocytic Leukemia L1210 Test; assay type: in vivo, mouse (CD2-F1); settings: median survival T/C; 120 mg/kg IP days 1, 5, 9; active if ≥125%
From the text: as §4, §1
The protocol for this test is identical to that for P388/0, except that the number of L1210 cells implanted on day 0 is ~10^5 /mouse. […]

Lewis lung carcinoma = assay: Lewis Lung Carcinoma Test; assay type: in vivo, mouse (BD-F1; tumor from C57B1/6); settings: median survival T/C; 105 mg/kg days 1, 5, 9; active if ≥140%
From the text: as §4
CD2-F1 mice, of the same sex, weighing 20±3 g, are used for this test. Control and test animals are injected intraperitoneally with a suspension of ~10^6 viable P388/0 tumor cells on day 0. In each test, several dose levels which bracket the LD20 of the compound are evaluated; each dose level group contains six animals. […] The day of death for each animal is recorded, the median identified for each group and the ratios of median survival time for treated (T)/control (C) groups are calculated. […]
This tumor arose spontaneously in the lung of a C57B1/6 mouse and is maintained by subcutaneous passage in that strain. […] In each test, several dose levels which bracket the LD20 for the compound are evaluated. […] The day of death for each animal is recorded, the median identified for each group and the ratios of median survival time for treated (T)/control (C) groups are calculated. […]

colon 38 carcinoma = assay: Colon 38 Carcinoma Test; assay type: in vivo, mouse (C57B1/6); settings: tumor weight T/C at day 20; 120 mg/kg IP days 1, 5, 9; active if ≤42%
From the text: as §4
This chemically-induced tumor arose in a C57B1/6 mouse and is maintained as a solid tumor in that mouse strain. The subcutaneously growing solid tumor is aseptically excised from passage mice and placed in sterile saline. The tumor is trimmed free of visible necrotic and connective tissue, then divided into 2-3 mm cubes. A cube is implanted subcutaneously in the ventral thoracie region with a sterile trochar on day 0. In each test several dose levels which bracket the LD20 for the compound are evaluated. Ten animals are included in each dose level group and thirty animals in the untreated control group. The test compounds are prepared either in physiologic saline containing 0.05% Tween 80 or distilled water containing 5% dextrose and are administered intraperitoneally on days 1, 5 and 9 after tumor implant. […] At day 20, the animals are sacrificed and the longest (L) and shortest (W) dimensions of each tumor measured with vernier calipers. Tumor weight is calculated from the formula (L× (W)^2 /2). […]

M5076 sarcoma = assay: M5076 Sarcoma Test; assay type: in vivo, mouse (B6C3-F1); settings: median survival T/C; 105 mg/kg IP days 1, 5, 9; active if ≥125%
From the text: as §4, §1
This sarcoma arose as a solid tumor in the ovary of a C57B1/6 mouse and was subsequently converted to the ascitic form for intraperitoneal use. […]

[3] = system: lymphocytic leukemia P388/0; assay: Lymphocytic Leukemia P388/0 Test; assay type: in vivo, mouse (CD2-F1); settings: median survival T/C; IP days 1, 5, 9; active if ≥120%; optimal dose mg/kg: 1B 121, 1C 115, 2 100, 3 100, 6G 65, 18B 88, 19H 110, 6H 60, 7 110, 9 300, 10B 1013, 11C 150, 12G 90, 5F 225, 13D 303, 14 196, 15B 250, 16 1012, 4B 180
From the text: as §4, §1

[4] = LD20 in the P388/0 test mice; assay type: in vivo, mouse (CD2-F1); settings: mouse, in vivo, IP days 1, 5, 9, doses on a mg/kg basis, read-out: LD20 column, value in parentheses: highest nontoxic dose where the LD20 was not determined
Experimental: as §1, §2, §3

With `CC(C)C(CO)(CO)NCc1cc2c3ccccc3ccc2c2ccccc12` [Example 11C, 2-((6-Chrysenylmethyl)amino)-2-isopropyl-1,3-propanediol hydrochloride 1/3 H2 O] the LD20 (CD2-F1 mice) was 150 mg/kg.

For `CCC(CO)(CO)NCc1cc2c3ccccc3ccc2c2ccccc12.Cl` [Example 3, 2-((6-Chrysenylmethyl)amino)-2-ethyl-1,3-propanediol hydrochloride], the “T/C × 100% Excluding 60 day Survivors” value (melanotic melanoma B16) was “+144%”, the MIC [1] was 10 µg/mL and the MIC (Mycoplasma smegmatis) was over 100 µg/mL. The LD20 (CD2-F1 mice) was 100 mg/kg.

Molecule `C[C@@H](O)[C@@](C)(CO)NCc1cc2c3ccccc3ccc2c2ccccc12.Cl` (relative stereo) [Example 7, (+-)(2R*,3R*)-2-((6-Chrysenylmethyl)amino)-2-methyl-1,3-butanediol hydrochloride] has an LD20 (CD2-F1 mice) of 100 mg/kg.

In the case of `CC(CO)(CCO)NCc1cc2c3ccccc3ccc2c2ccccc12` (centres unmarked) [Example 12G, 2-((6-chrysenylmethyl)amino)-2-methyl-1,4-butanediol hyrochloride.1/3EtOH], the LD20 (CD2-F1 mice) is reported as 90 mg/kg.

For `CC(CO)(CO)NCc1cc2c3ccccc3ccc2c2ccccc12.Cl` [Example 1B, 2-((6-Chrysenylmethyl)amino)-2-methyl-1,3-propanediol hydrochloride], the “Zone of Inhibition” value (Herpes simplex 1/vero) was 43, the MIC [1] was at most 10 µg/mL and the MIC (Mycoplasma smegmatis) was at most 10 µg/mL. The LD20 (CD2-F1 mice) was 140 mg/kg.

`CC(CO)(CO)NCc1ccc2ccc3c4ccccc4ccc3c2c1` [Example 19H, 2-((3-Chrysenylmethyl)amino)-2-methyl-1,3-propanediol methanesulfonate] showed an LD20 (CD2-F1 mice) of 150 mg/kg.

For `CC(C)(CO)NCc1cc2c3ccccc3ccc2c2ccccc12.Cl` [Example 18B, 2-((6-Chrysenylmethyl)amino)-2-methylpropanol hydrochloride], the “T/C × 100% Excluding 60 day Survivors” value (melanotic melanoma B16) was “+125%”, the MIC [1] was at most 3 µg/mL and the MIC (Mycoplasma smegmatis) was 10 µg/mL. It also gave an LD20 (CD2-F1 mice) of 80 mg/kg.

`CC(CO)(CO)NCc1cc2c3ccccc3c(Cl)cc2c2ccccc12` [Example 4B, 2-(((12-Chloro-6-chrysenyl)methyl)amino)-2-methyl-1,3-propanediol methanesulfonate.1/3H2 O] showed an LD20 (CD2-F1 mice) of 180 mg/kg.

Work on `CS(=O)(=O)O.C[C@H](O)[C@@](C)(CO)NCc1cc2c3ccccc3ccc2c2ccccc12` (relative stereo) [Example 6H, (+-)(2R*,3S*)-2-((6-Chrysenylmethyl)amino)-2-methyl-1,3-butanediol methanesulfonate] yielded an LD20 (CD2-F1 mice) of 60 mg/kg.

With `Cl.OCC(CO)(CO)NCc1cc2c3ccccc3ccc2c2ccccc12` [Example 2, 2-((6-chrysenylmethyl)amino)-2-hydroxymethyl-1,3-propanediol hydrochloride] the “T/C × 100% Excluding 60 day Survivors” value (melanotic melanoma B16) was “+144%”, the MIC [1] was 10 µg/mL and the MIC (Mycoplasma smegmatis) was 10 µg/mL. It also gave an LD20 (CD2-F1 mice) of 100 mg/kg.

For `CCc1cc2c3ccccc3c(CNC(C)(CO)CO)cc2c2ccccc12` [Example 15B, 2-(((12-Ethyl-6-chrysenyl)methyl)amino)-2-methyl-1,3-propanediol methanesulfonate], the LD20 (CD2-F1 mice) was 150 mg/kg.

For `CC(CO)(CO)NCc1cc2c3ccccc3ccc2c2ccccc12` [Example 1C, 2-((6-Chrysenylmethyl)amino)-2-methyl-1,3-propanediol methanesulfonate], the “T/C × 100% Excluding 30 day Survivors” value [2] was “+252%”, the “T/C × 100% Excluding 60 day Survivors” value (melanotic melanoma B16) was “+146%” and the “T/C × 100% Excluding 60 day Survivors” value (Lewis lung carcinoma) was “+191%”. For the same molecule, the “T/C × 100%” value (colon 38 carcinoma) was 36%, the “T/C × 100%” value (M5076 sarcoma) was “+168%” and the LD20 (CD2-F1 mice) was 105 mg/kg.

In the case of `CS(=O)(=O)O.C[C@H](O)C(NCc1cc2c3ccccc3ccc2c2ccccc12)[C@@H](C)O` (stereo partly drawn) [Example 13D, meso-3-((6-Chrysenylmethyl)amino)-2,4-pentanediol methanesulfonate], the “T/C × 100% (Excluding 30 Day Survivors)” value [3] is reported as “+200%” and the LD20 (CD2-F1 mice) is reported as 675 mg/kg.

Work on `O[C@@H]1CCC[C@H](O)[C@H]1NCc1cc2c3ccccc3ccc2c2ccccc12` [Example 10B, (1α,2β,3α)-2-((6-Chrysenylmethyl)amino)-1,3-cyclohexanediol hydrochloride] yielded an MTD [4] of 675 mg/kg.

With `OCC(CO)NCc1cc2c3ccccc3ccc2c2ccccc12` [Example 14, 2-((6-Chrysenylmethyl)amino)-1,3-propanediol methanesulfonate] the LD20 (CD2-F1 mice) was 160 mg/kg.

Work on `COCC(C)(CO)NCc1cc2c3ccccc3ccc2c2ccccc12.Cl` (centres unmarked) [Example 9D, 3-methoxy-2-((6-chrysenylmethyl)amino)-2-methyl-1-propanol hydrochloride] yielded an LD20 (CD2-F1 mice) of 425 mg/kg.

Molecule `CC(=O)OCC(C)(COC(C)=O)NCc1cc2c3ccccc3ccc2c2ccccc12` [Example 16, 2-((6-Chrysenylmethyl)amino)-2-methyl-1,3-propanediol diacetate] has an MIC [1] of 10 µg/mL, an MIC (Mycoplasma smegmatis) of 10 µg/mL and an LD20 (CD2-F1 mice) of 675 mg/kg.

Work on `C[C@@H](O)C(C)(NCc1cc2c3ccccc3ccc2c2ccccc12)[C@@H](C)O` (relative stereo) [Example 5F] yielded an LD20 (CD2-F1 mice) of 225 mg/kg.
